According to US10597388B2, “Pyridazinone herbicides” (FMC CORPORATION, priority 2014, dated 2020):
Read-outs that look alike come from different tables or passages of the source.

Experiments:
Type in all cases: in vivo
[1] = system: blackgrass (Alopecurus myosuroides); experiment: Test A greenhouse herbicide test, postemergence; settings: Alopecurus myosuroides, post-emergence, 240 h; for pest or weed control at 125 g/ha: 125 g ai/ha, read-out: Plant response rating, Blackgrass; for pest or weed control at 500 g/ha: 500 g ai/ha, 0 to 100 scale, 0 is no effect, 100 is complete control, read-out: Blackgrass plant response rating
In short: (§1)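 Scores are visual injury ratings from 0 (no effect) to 100 (complete control) versus untreated plants, taken roughly 10 d after treatment in the greenhouse. Treatment was postemergence, on one- to two-leaf plants 2–10 cm high growing in a loam soil/sand mix.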

[2] = system: galium (catchweed bedstraw, Galium aparine); experiment: Test A greenhouse herbicide test, postemergence; settings: Galium, post-emergence, 240 h; for pest or weed control at 125 g/ha: 125 g ai/ha, read-out: Plant response rating, Galium; for pest or weed control at 500 g/ha: 500 g ai/ha, 0 to 100 scale, 0 is no effect, 100 is complete control, read-out: Galium plant response rating
In short: as §1

corn (Zea mays) = experiment: Test A greenhouse herbicide test, pre- and postemergence; settings: Zea mays, post-emergence, 240 h, Postemergence; for Corn plant response rating (crop injury, 0 = no effect, 100 = complete kill) at 125 g/ha: 125 g ai/ha; for plant injury at 500 g/ha: 500 g ai/ha, 0 to 100 scale, 0 is no effect, 100 is complete control, read-out: Corn plant response rating
In short: (§2)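 Visual injury ratings, 0 (no effect) to 100 (complete control), versus untreated plants after roughly 10 d in a greenhouse. Compounds, formulated in a surfactant-containing non-phytotoxic solvent, were sprayed on loam–sand soil after sowing (pre) or on one- to two-leaf plants 2–10 cm tall (post).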

[3] = system: ryegrass, Italian (Italian ryegrass, Lolium multiflorum); experiment: as above; settings: Lolium multiflorum, 240 h; for pest or weed control at 125 g/ha: 125 g ai/ha; for pest or weed control at 500 g/ha: 500 g ai/ha, 0 to 100 scale
In short: as §2

kochia (Kochia scoparia) = experiment: as above; settings: Bassia scoparia, 240 h; for pest or weed control at 125 g/ha: 125 g ai/ha; for pest or weed control at 500 g/ha: 500 g ai/ha, 0 to 100 scale
In short: as §2

[4] = system: foxtail, giant (giant foxtail, Setaria faberii); experiment: as above; settings: Setaria faberi, 240 h; for pest or weed control at 125 g/ha: 125 g ai/ha; for pest or weed control at 500 g/ha: 500 g ai/ha, 0 to 100 scale
In short: as §2

[5] = system: ragweed (common ragweed, Ambrosia elatior); experiment: as above; settings: Ambrosia artemisiifolia, 240 h; for pest or weed control at 125 g/ha: 125 g ai/ha; for pest or weed control at 500 g/ha: 500 g ai/ha, 0 to 100 scale
In short: as §2

[6] = system: wheat (Triticum aestivum); experiment: as above; settings: Triticum aestivum, post-emergence, 240 h, Postemergence; for plant injury at 125 g/ha: 125 g ai/ha, read-out: Plant response rating, Wheat; for plant injury at 500 g/ha: 500 g ai/ha, 0 to 100 scale, 0 is no effect, 100 is complete control, read-out: Wheat plant response rating
In short: as §2

[7] = visual rating after approx. 10 d, 0 to 100 scale (0 no effect, 100 complete control)
[8] = post-emergence, Postemergence, visual rating after approx. 10 d, 0 to 100 scale (0 no effect, 100 complete control), read-out: Plant response rating, Ryegrass, Italian
[9] = post-emergence, Postemergence, 0 is no effect, 100 is complete control, read-out: Ryegrass, Italian plant response rating
[10] = pre-emergence, Preemergence, 0 to 100 scale where 0 is no effect and 100 is complete control, read-out: Ryegrass, Italian plant response rating
[11] = pre-emergence, Preemergence, 0 no effect, 100 complete control, read-out: Plant response rating, Ryegrass, Italian
[12] = post-emergence, Postemergence, visual rating after approx. 10 d, 0 to 100 scale (0 no effect, 100 complete control), read-out: Plant response rating, Kochia
[13] = post-emergence, Postemergence, 0 is no effect, 100 is complete control, read-out: Kochia plant response rating
[14] = pre-emergence, Preemergence, 0 to 100 scale where 0 is no effect and 100 is complete control, read-out: Kochia plant response rating
[15] = pre-emergence, Preemergence, 0 no effect, 100 complete control, read-out: Plant response rating, Kochia
[16] = post-emergence, Postemergence, visual rating after approx. 10 d, 0 to 100 scale (0 no effect, 100 complete control), read-out: Plant response rating, Foxtail, Giant
[17] = post-emergence, Postemergence, 0 is no effect, 100 is complete control, read-out: Foxtail, Giant plant response rating
[18] = pre-emergence, Preemergence, 0 to 100 scale where 0 is no effect and 100 is complete control, read-out: Foxtail, Giant plant response rating
[19] = pre-emergence, Preemergence, 0 no effect, 100 complete control, read-out: Plant response rating, Foxtail, Giant
[20] = post-emergence, Postemergence, visual rating after approx. 10 d, 0 to 100 scale (0 no effect, 100 complete control), read-out: Plant response rating, Ragweed
[21] = post-emergence, Postemergence, 0 is no effect, 100 is complete control, read-out: Ragweed plant response rating
[22] = pre-emergence, Preemergence, 0 to 100 scale where 0 is no effect and 100 is complete control, read-out: Ragweed plant response rating
[23] = pre-emergence, Preemergence, 0 no effect, 100 complete control, read-out: Plant response rating, Ragweed
[24] = 0 to 100 scale where 0 is no effect and 100 is complete control

CC(=O)Oc1c(C)nn(C)c(=O)c1-c1c(C)oc2c(C)cccc12 [Compound 15, 5-(acetyloxy)-4-(2,7-dimethyl-3-benzofuranyl)-2,6-dimethyl-3(2H)-pyridazinone]
10%: pest or weed control at 125 g/ha [4, 18]
50%: pest or weed control at 500 g/ha [1] | pest or weed control at 125 g/ha [3, 8] | pest or weed control at 125 g/ha [3, 10] | pest or weed control at 125 g/ha (kochia (Kochia scoparia); [12]) | pest or weed control at 500 g/ha (kochia (Kochia scoparia); [13]) | pest or weed control at 125 g/ha [5, 20] | pest or weed control at 500 g/ha [5, 21]
20%: plant injury at 500 g/ha (corn (Zea mays))
90%: pest or weed control at 500 g/ha [2] | pest or weed control at 500 g/ha [3, 9] | pest or weed control at 500 g/ha [4, 17]
0%: pest or weed control at 125 g/ha [1, 7] | Corn plant response rating (crop injury, 0 = no effect, 100 = complete kill) at 125 g/ha (corn (Zea mays); [7]) | pest or weed control at 125 g/ha (kochia (Kochia scoparia); [14]) | pest or weed control at 500 g/ha (kochia (Kochia scoparia); [15]) | pest or weed control at 125 g/ha [5, 22] | plant injury at 125 g/ha [6, 7] | plant injury at 500 g/ha [6]
30%: pest or weed control at 500 g/ha [5, 23]
100%: pest or weed control at 500 g/ha [3, 11]
70%: pest or weed control at 125 g/ha [2, 7] | pest or weed control at 125 g/ha [4, 16] | pest or weed control at 500 g/ha [4, 19]

CCc1sc2cc(C)cc(C)c2c1-c1c(O)c(C)nn(C)c1=O [Compound 19, 4-(2-ethyl-4,6-dimethylbenzo[b]thien-3-yl)-5-hydroxy-2,6-dimethyl-3(2H)-pyridazinone]
20%: pest or weed control at 125 g/ha [4, 16] | pest or weed control at 500 g/ha [5, 23]
60%: pest or weed control at 500 g/ha [4, 17]
30%: pest or weed control at 125 g/ha [2, 7]
0%: pest or weed control at 125 g/ha [1, 7] | pest or weed control at 500 g/ha [1] | Corn plant response rating (crop injury, 0 = no effect, 100 = complete kill) at 125 g/ha (corn (Zea mays); [7]) | plant injury at 500 g/ha (corn (Zea mays)) | pest or weed control at 125 g/ha [3, 8] | pest or weed control at 500 g/ha [3, 9] | pest or weed control at 125 g/ha [3, 10] | pest or weed control at 500 g/ha [3, 11] | pest or weed control at 125 g/ha (kochia (Kochia scoparia); [12]) | pest or weed control at 500 g/ha (kochia (Kochia scoparia); [13]) | pest or weed control at 125 g/ha (kochia (Kochia scoparia); [14]) | pest or weed control at 500 g/ha (kochia (Kochia scoparia); [15]) | pest or weed control at 125 g/ha [4, 18] | pest or weed control at 500 g/ha [4, 19] | pest or weed control at 125 g/ha [5, 20] | pest or weed control at 500 g/ha [5, 21] | pest or weed control at 125 g/ha [5, 22] | plant injury at 125 g/ha [6, 7] | plant injury at 500 g/ha [6]
80%: pest or weed control at 500 g/ha [2]

COc1nn(C)c(=O)c(-c2c(C)c(C)cc3ccccc23)c1O [Compound 46, 4-(2,3-dimethyl-1-naphthalenyl)-5-hydroxy-6-methoxy-2-methyl-3(2H)-pyridazinone]
20%: pest or weed control at 125 g/ha [1, 24] | plant injury at 500 g/ha [6]
80%: pest or weed control at 500 g/ha [3, 9] | pest or weed control at 500 g/ha [4, 17] | pest or weed control at 125 g/ha ([5]; post-emergence, Postemergence, 0 to 100 scale where 0 is no effect and 100 is complete control, read-out: Plant response rating, Ragweed) | pest or weed control at 500 g/ha [5, 23]
90%: pest or weed control at 500 g/ha [2] | pest or weed control at 500 g/ha [4, 19] | pest or weed control at 500 g/ha [5, 21]
70%: pest or weed control at 500 g/ha [1] | pest or weed control at 125 g/ha [2, 24]
40%: pest or weed control at 500 g/ha (kochia (Kochia scoparia); [13])
0%: Corn plant response rating (crop injury, 0 = no effect, 100 = complete kill) at 125 g/ha (corn (Zea mays); [24]) | plant injury at 500 g/ha (corn (Zea mays)) | plant injury at 125 g/ha [6, 24]
50%: pest or weed control at 500 g/ha [3, 11] | pest or weed control at 125 g/ha ([4]; post-emergence, Postemergence, 0 to 100 scale where 0 is no effect and 100 is complete control, read-out: Plant response rating, Foxtail, Giant) | pest or weed control at 125 g/ha [4, 18] | pest or weed control at 125 g/ha [5, 22]
30%: pest or weed control at 125 g/ha ([3]; post-emergence, Postemergence, 0 to 100 scale where 0 is no effect and 100 is complete control, read-out: Plant response rating, Ryegrass, Italian) | pest or weed control at 125 g/ha [3, 10] | pest or weed control at 125 g/ha (kochia (Kochia scoparia); post-emergence, Postemergence, 0 to 100 scale where 0 is no effect and 100 is complete control, read-out: Plant response rating, Kochia) | pest or weed control at 125 g/ha (kochia (Kochia scoparia); [14]) | pest or weed control at 500 g/ha (kochia (Kochia scoparia); [15])
